This is an account of results in the supplement of paper PMC8967900.

Common to all, as to test: selective drug sensitivity score (sDSS, relative to normal bone marrow) (sDSS (score)); higher = more potent and effective on the cell line relative to normal bone marrow cells
Holding throughout (settings): 72 h

Experiment [1] deals with KOPN-8.
Experiment [2] has as its system COG-LL-402h.
For experiment [3], the system named is MHH-CALL-4.
For experiment [4], the system named is P30-OHKUBO.
Experiment [5] concerns CCRF-HSB2.
The test system of experiment [6] is TANOUE.
Experiment [7] concerns DND-41.
In experiment [8] the test system is COG-LL-317.
Experiment [9] concerns P12-ICHIKAWA
For experiment [10], the system named is MOLT-16.
The test system of experiment [11] is PF-382.
Experiment [12] deals with COG-LL-355h.
Experiment [13] has as its system REH.
The test system of experiment [14] is COG-LL-394h.
Experiment [15] relates to MHH-CALL-3.
Experiment [16] concerns COG-LL-319h.
The subject of experiment [17] is RPMI-8402.
Experiment [18] has as its system SUP-B15.
Experiment [19] relates to KASUMI-10.
Experiment [20] relates to SEM cells.
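Note: ALL cell lines in 384-well plates, five doses spanning 10,000-fold, each plate scaled between vehicle and 100 µmol/L benzalkonium chloride controls, sDSS an adapted area-under-curve metric.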

Take `CN1CCN(C2CCC(n3cc(-c4ccc(Oc5ccccc5)cc4)c4c(N)ncnc43)CC2)CC1` (stereo not given) (top concentration 10000 nM): the “selective drug sensitivity score” value in experiment [1] was 5.02; in experiment [2] it was 18.2; in [3] it was 0.52; in experiment [4] it was 8.52; in experiment [5], 29.1; in experiment [6], -4.68. The “selective drug sensitivity score” value was 3.62 in experiment [7]; 0.82 in experiment [8]; 1.12 in [9]; 0.52 in [10]; 7.12 in experiment [11]; -0.08 in experiment [12]. Besides, the “selective drug sensitivity score” value in experiment [13] amounted to 4.12; in experiment [14] it was 4.42; in experiment [15], 6.92; in experiment [16], 2.42; in experiment [17], 3.52; in experiment [18], 16.1. Further, the “selective drug sensitivity score” value in experiment [19] was 8.52; in experiment [20], 9.62.
For the compound `CC[C@H](CC#N)OC(=O)N[C@@H](C)c1cccc(NC(=O)Nc2ccc(-c3cnco3)c(OC)c2)c1` [AVN944] (top concentration 10000 nM), the “selective drug sensitivity score” value is 19.5 in experiment [1]; 9.64 in [2]; 2.44 in experiment [3]; 13.8 in experiment [4]; 14.5 in experiment [5]; -3.66 in [6]. Further, the “selective drug sensitivity score” value was 8.44 in experiment [7]; 20.6 in [8]; 14.2 in [9]; 22.3 in [10]; 10.2 in [11]; -2.16 in experiment [12]. Moreover, the “selective drug sensitivity score” value is 16.8 in experiment [13]; -2.06 in [14]; 11.1 in experiment [15]; 12.3 in experiment [16]; 11.9 in [17]; 14.6 in experiment [18]. The “selective drug sensitivity score” value in experiment [19] worked out at 10.1; in [20] it was 7.04.
For the compound `COc1ccc(-c2ccc3c(N4CCOC[C@@H]4C)nc(N4CCOC[C@@H]4C)nc3n2)cc1CO` [AZD8055] (top concentration 10000 nM), the “selective drug sensitivity score” value was 22.6 in experiment [1]; 9.88 in experiment [2]; 2.88 in experiment [3]; 16.6 in [4]; 10.1 in experiment [5]; -3.02 in experiment [6]. Further, the “selective drug sensitivity score” value in experiment [7] is 4.78; in [8], 4.78; in [9] it was 6.78; in experiment [10], 12.5; in [11] it was 9.18; in experiment [12], 6.38. In addition, the “selective drug sensitivity score” value in experiment [13] is 12.8; in [14] it was -2.42; in [15] it was -0.52; in experiment [16] it was 5.28; in experiment [17] it was 7.78; in [18], 11.9. Moreover, the “selective drug sensitivity score” value came to 0.48 in experiment [19] and 6.18 in experiment [20].
For `COc1cccc2c1C(=O)c1c(O)c3c(c(O)c1C2=O)C[C@@](O)(C(=O)CO)C[C@@H]3O[C@H]1C[C@H](N)[C@@H](O)[C@H](C)O1` [Epirubicin] (top concentration 1000 nM), the “selective drug sensitivity score” value was 9.42 in [1]; 14.9 in [2]; 6.92 in [3]; 6.92 in [4]; 14.8 in experiment [5]; -7.88 in experiment [6]. In addition, the “selective drug sensitivity score” value was -0.58 in [7]; 17 in [8]; 4.62 in [9]; 15.4 in experiment [10]; 2.12 in experiment [11]; 3.22 in experiment [12]. The “selective drug sensitivity score” value is 10.5 in experiment [13]; 6.82 in [14]; 14.8 in [15]; 16.3 in experiment [16]; 6.62 in experiment [17]; 13.7 in [18]. Further, the “selective drug sensitivity score” value is 5.82 in experiment [19] and 3.82 in experiment [20].
Take `CO[C@H]1C[C@@H]2CC[C@@H](C)[C@@](O)(O2)C(=O)C(=O)N2CCCC[C@H]2C(=O)O[C@H]([C@H](C)C[C@@H]2CC[C@@H](OCCO)[C@H](OC)C2)CC(=O)[C@H](C)/C=C(\C)[C@@H](O)[C@@H](OC)C(=O)[C@H](C)C[C@H](C)/C=C/C=C/C=C/1C` [Everolimus] (top concentration 100 nM): the “selective drug sensitivity score” value was 19.6 in experiment [1]; 1 in experiment [2]; -1.5 in [3]; 2 in [4]; 4.8 in [5]; -5.3 in experiment [6]. Also, the “selective drug sensitivity score” value in [7] is 1.1; in experiment [8], 2.4; in [9] it was -2.5; in [10], 8.1; in [11], 1.9; in experiment [12], 1.5. For the same compound, the “selective drug sensitivity score” value in experiment [13] is 4; in experiment [14], -4.9; in experiment [15], 3.4; in experiment [16] it was 10.7; in [17] it was -0.7; in experiment [18], 6.1. For the same compound, the “selective drug sensitivity score” value is -5.3 in experiment [19] and 1.4 in [20].
